Measured values published in publication PMC9150124, “Design of a Potent, Selective, and Brain-Penetrant Inhibitor of Wnt-Deactivating Enzyme Notum by Optimization of a Crystallographic Fragment Hit” (Journal of Medicinal Chemistry, 2022).
In brackets after ≈: the same amount, converted by molar mass. Several values for one entry are separate records, joined by “and”; a condition that tells them apart may be missing. Equal entries are not always repeated. Where two headings read alike, the source gives them in different places.

Columns and labels:
[1] = molecular target: T1, human Notum (81–451 Cys330Ser) (Homo sapiens, UniProt Q6P988, C330S); test: Notum OPTS biochemical assay; conditions: for IC50: mean
T1 construct: human Notum (81–451 Cys330Ser) as the enzyme; made in house
T1 sequence (Q6P988 81-451 C330S): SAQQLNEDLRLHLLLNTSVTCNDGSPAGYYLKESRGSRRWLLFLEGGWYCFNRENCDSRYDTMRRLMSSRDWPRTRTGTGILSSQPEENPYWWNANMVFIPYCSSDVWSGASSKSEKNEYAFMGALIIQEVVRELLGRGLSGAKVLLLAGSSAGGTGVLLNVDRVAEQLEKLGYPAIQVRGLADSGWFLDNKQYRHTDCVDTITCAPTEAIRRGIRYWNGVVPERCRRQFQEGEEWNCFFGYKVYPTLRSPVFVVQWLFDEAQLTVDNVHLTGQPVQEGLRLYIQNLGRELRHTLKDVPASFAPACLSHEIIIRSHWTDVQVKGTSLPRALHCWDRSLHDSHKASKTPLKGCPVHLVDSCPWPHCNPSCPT
Text: The optimization of 6 to deliver this profile was directed at three principle areas of these hit structures: (1) aryl ring 7 (Table 1); (2) the C4 substituent on triazole 8 (Table 2); and (3) further fine-tuning of the triazole 9 (Table 3). […] This assay was used to establish SAR and to identify preferred leads for additional studies.
Methods have been described in detail elsewhere.[23]−[26] Representative concentration–response curves are provided in the Supporting Information.

[2] = in vitro; conditions: dog
[3] = tested on: P-gp (MDR1); test: in vitro; conditions: dog
[4] = tested on: MDR1 (P-gp); test: in vitro; conditions: dog
[5] = Stability in mouse liver microsomes; format: in vitro ADME
[6] = Aqueous solubility in PBS (pH 7.4); format: physicochemical
Text: Biosciences (Hyderabad, India) or WuXi AppTec (Shanghai, China).
Table S1: Representative assay protocol

[7] = molecular target: T2, Notum (Homo sapiens, UniProt Q6P988); test: ABPP-TMT (FP-biotin) proteomic analysis in SW620 cells
T2 sequence (Q6P988 20-496): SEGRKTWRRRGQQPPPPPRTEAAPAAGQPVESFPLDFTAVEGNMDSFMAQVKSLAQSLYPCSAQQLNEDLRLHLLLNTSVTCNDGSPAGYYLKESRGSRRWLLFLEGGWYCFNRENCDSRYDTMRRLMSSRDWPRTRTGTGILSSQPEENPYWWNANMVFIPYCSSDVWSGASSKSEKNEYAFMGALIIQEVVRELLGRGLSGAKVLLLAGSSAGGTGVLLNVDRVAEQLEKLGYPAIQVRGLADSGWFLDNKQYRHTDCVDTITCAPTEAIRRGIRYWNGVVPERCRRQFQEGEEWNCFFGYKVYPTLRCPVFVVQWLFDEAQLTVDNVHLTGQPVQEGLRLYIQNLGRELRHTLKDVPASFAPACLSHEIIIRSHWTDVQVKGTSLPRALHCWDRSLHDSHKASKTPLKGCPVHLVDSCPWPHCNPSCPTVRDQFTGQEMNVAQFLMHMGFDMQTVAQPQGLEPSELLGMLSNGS

[8] = OPTS substrate, read-out: Notum IC50
[9] = MDCK-MDR1, MDCK-MDR1 AB Papp, apical to basal
[10] = MDCK-MDR1, MDCK-MDR1 BA Papp, basal to apical

With `OCc1cn(-c2ccc(C(F)(F)F)c(C(F)(F)F)c2)nn1` [7v, ((3,4-Bis(trifluoromethyl)phenyl)-1H-1,2,3-triazol-4-yl)methanol] the IC50 [1, 8] was 2200 ± 4400 nM.
`FC(F)(F)c1c(Cl)ccc(-n2cnnn2)c1Cl` [9b, 1-(2,4-Dichloro-3-(trifluoromethyl)phenyl)-1H-tetrazole] showed an IC50 [1, 8] of 140 ± 20 nM.
For `N#Cc1cccc(-n2cc(CO)nn2)c1` [7h, ((3-Cyanophenyl)-1H-1,2,3-triazol-4-yl)methanol], the IC50 [1, 8] was 83000 ± 36000 nM.
In the case of `COCc1cn(-c2ccc(Cl)c(C(F)(F)F)c2Cl)nn1` [8j, 1-(2,4-Dichloro-3-(trifluoromethyl)phenyl)-4-(methoxymethyl)-1H-1,2,3-triazole], the IC50 [1, 8] is reported as 200 ± 50 nM.
Work on `OCCCc1cn(-c2ccc(Cl)c(C(F)(F)F)c2Cl)nn1` [8c, 3-(1-(2,4-Dichloro-3-(trifluoromethyl)phenyl)-1H-1,2,3-triazol-4-yl)propan-1-ol] yielded an IC50 [1, 8] of 1800 ± 500 nM.
Work on `OCCc1cn(-c2ccc(Cl)c(C(F)(F)F)c2Cl)nn1` [8b, 2-(1-(2,4-Dichloro-3-(trifluoromethyl)phenyl)-1H-1,2,3-triazol-4-yl)ethan-1-ol] yielded an IC50 [1, 8] of 5700 ± 2500 nM.
In the case of `[2H]c1nnn(-c2ccc(Cl)c(C(F)(F)F)c2Cl)c1[2H]` [d2-8l, 1-(2,4-Dichloro-3-(trifluoromethyl)phenyl)-1H-1,2,3-triazole-4,5-d2], the Papp [2, 9] is reported as 48 ×10⁻⁶ cm/s, the Papp [2, 10] is reported as 35 ×10⁻⁶ cm/s and the Papp [3, 9] is reported as 47.8 ×10⁻⁶ cm/s. The Papp [3, 10] was 35.4 ×10⁻⁶ cm/s, the recovery ([4]; MDCK-MDR1, MDR1-MDCKII A to B % Recovery) was 102% and the recovery ([4]; MDCK-MDR1, MDR1-MDCKII B to A % Recovery) was 111%. For the same molecule, the “MLM Cli” value [5] was 5.4 μL/min/mg protein and 5.4/ND μL/min/mg protein, the half-life ([5]; mouse, liver microsomes, Table S4, read-out: MLM Stability t1/2) was 2.15 h and the solubility ([6]; PBS pH 7.4, read-out: aq. solubility) was 44 µg/mL and 155 µM. The solubility thermodynamic ([6]; PBS, pH 7.4, n = 2, read-out: Thermodynamic Solubility @ RT, mean) was 44 µg/mL (≈ 155 µM).
In the case of `O=C(O)CSc1ncnc2c(C3CC3)c(Cl)sc12` [compound 1, LP-922056, reference compound], the “NOTUM intensity normalised to DMSO” value ([7]; SW620 conditioned media, 1e-8 M) is reported as 1.677, the “NOTUM intensity normalised to DMSO” value ([7]; SW620 conditioned media, 3e-8 M) is reported as 1.111 and the “NOTUM intensity normalised to DMSO” value ([7]; SW620 conditioned media, 1e-7 M) is reported as 1.2088. For the same molecule, the “NOTUM intensity normalised to DMSO” value ([7]; SW620 conditioned media, 3e-7 M) was 0.5634, the “NOTUM intensity normalised to DMSO” value ([7]; SW620 conditioned media, 1e-6 M) was 0.3108 and the “NOTUM intensity normalised to DMSO” value ([7]; SW620 conditioned media, 3e-6 M) was 0.1718. For the same molecule, the “NOTUM intensity normalised to DMSO” value ([7]; SW620 conditioned media, 1e-5 M) was 0.112, the “NOTUM intensity normalised to DMSO” value ([7]; SW620 lysate, 1e-8 M) was 0.811 and the “NOTUM intensity normalised to DMSO” value ([7]; SW620 lysate, 3e-8 M) was 0.6714. The “NOTUM intensity normalised to DMSO” value ([7]; SW620 lysate, 1e-7 M) was 0.5739, the “NOTUM intensity normalised to DMSO” value ([7]; SW620 lysate, 3e-7 M) was 0.495 and the “NOTUM intensity normalised to DMSO” value ([7]; SW620 lysate, 1e-6 M) was 0.3711. For the same molecule, the “NOTUM intensity normalised to DMSO” value ([7]; SW620 lysate, 3e-6 M) was 0.4727 and the “NOTUM intensity normalised to DMSO” value ([7]; SW620 lysate, 1e-5 M) was 0.5374.
With `CNC(=O)c1cn(-c2ccc(Cl)c(C(F)(F)F)c2Cl)nn1` [8h, 1-(2,4-Dichloro-3-(trifluoromethyl)phenyl)-N-methyl-1H-1,2,3-triazole-4-carboxamide] the IC50 [1, 8] was 2300 ± 220 nM.
With `N#Cc1ccc(-n2cc(CO)nn2)cc1` [7m, ((4-Cyanophenyl)-1H-1,2,3-triazol-4-yl)methanol] the IC50 [1, 8] was 270000 ± 310000 nM.
In the case of `Cc1cccc(-n2cc(CO)nn2)c1` [7e, ((3-Methylphenyl)-1H-1,2,3-triazol-4-yl)methanol], the “% I” value ([1]; @10 μM) is reported as “b 40–50% I@10 μM” and the IC50 [1, 8] is reported as ~10000 nM and 10000 nM.
Molecule `CC(O)Cc1cn(-c2ccc(Cl)c(C(F)(F)F)c2Cl)nn1` (stereo not shown) [8d, 1-(1-(2,4-Dichloro-3-(trifluoromethyl)phenyl)-1H-1,2,3-triazol-4-yl)propan-2-ol] has an IC50 ([1]; Notum IC50, OPTS substrate) greater than 1000 nM and an IC50 [1, 8] of 1700 ± 1400 nM.
In the case of `OCc1cn(-c2ccc(F)cc2)nn1` [7j, ((4-Fluorophenyl)-1H-1,2,3-triazol-4-yl)methanol], the “% I” value ([1]; @100 μM) is reported as “c 40–50% I@100 μM” and the IC50 [1, 8] is reported as ~100000 nM and 100000 nM.
With `Cc1cn(-c2ccc(Cl)c(C(F)(F)F)c2Cl)nn1` [8k, 1-(2,4-Dichloro-3-(trifluoromethyl)phenyl)-4-methyl-1H-1,2,3-triazole] the “reduction in potency vs 7y” value [1] was 12 fold and the IC50 [1, 8] was 110 ± 40 nM.
